Data as given in patent US20100184790A1, “PYRROLO[2,3-B]PYRIDINE COMPOUNDS, AZAINDOLE COMPOUNDS USED FOR SYNTHESIZING SAID PYRROLO[2,3-B]PYRIDINE COMPOUNDS, METHODS FOR THE PRODUCTION THEREOF, AND USES THEREOF” (CENTRE NATIONAL DE LA RECHERCHE SCIENTIFIQUE, priority 2007, published 2010).
pIC50: −log10 of the molar value. Like-named read-outs stand apart in the source and are kept apart here.

Experiments:
GSK-3α/β = GSK-3α/β kinase assay (GS-1 peptide); assay type: biochemical, porcine; details: 15 μM ATP, 30° C.
Experimental: After incubating at 30° C. for 30 (thirty) minutes, the 25 μl aliquots of the supernatant were treated as described above.

CK1δ/ε = CK1δ/ε kinase assay (CK1-specific peptide); assay type: biochemical, porcine; details: 15 μM ATP, 30° C.
Experimental: CK1δ/ε was purified from porcine brain by affinity chromatography on an immobilized axin fragment. It was assayed as described for CDK1 but using a CK1-specific peptide substrate.

DYRK1A = DYRK1A (Rattus norvegicus, UniProt Q63470); assay: DYRK1A kinase assay (myelin basic protein); assay type: biochemical; details: 15 μM ATP, 30° C., myelin basic protein; read-out: IC50 DYRK1A
SH-SY5Y cells = assay: Cell survival, MTS reduction, SH-SY5Y; assay type: cell-based; details: Homo sapiens; for IC50: 8 h, Table 3, forty eight hours after addition, read-out: Survival of the cells (IC50, μM) (MTS reduction) SH-SY5Y (neuroblastoma); for pIC50: read-out: IC50 survival of SH-SY5Y cells (MTS reduction)
Experimental: The human neuroblastoma cell line SH-SY5Y was grown in a DMEM medium with L-glutamine originating from Invitrogen (Cergy Pontoise, France), antibiotics and 10% by volume of FCS originating from Invitrogen. […] These compounds were also tested at various concentrations with regard to their effects on SH-SY5Y and HEK293 cells. […] The IC50 values were calculated from the dose-response curves and are given in micromoles (mean±standard deviation of two independent measurements carried out in triplicate). […] The survival of the cells was estimated by the assaying of the degree of reduction of MTS induced by this exposure. […] The ICS© values were calculated from dose-response curves and are given in micromoles in table 3 below.

HCT116 (colon) = assay: Cell survival, MTS reduction, HCT116; assay type: cell-based; details: Homo sapiens, HCT-116; forty eight hours after addition; read-out: Survival of the cells (IC50, μM) (MTS reduction) HCT116 (colon)
Experimental: (§1) The viability of the cells was determined by measuring the reduction of 3-(4,5-dimethylthiazol-2-yl)-5-(3-carboxymethoxyphenyl)-2-(4-sulfophenyl)-2H/tetrazolium (MTS). The procedure was such as described in detail in Ribas J. et al., 2004, “Cell differentiation, caspase inhibition, and macromolecular synthesis blockage, but not BCL-2 or BCL-XL proteins, protect SH-SYS5 cells from apoptosis triggered by two CDK inhibitory drugs”, Exp. Cell Res., 2004, 195, 9-24.
(§2) The effects of meriolins 2 and 3 on the survival of various cell lines were also tested at various concentrations in order to determine their effects on eight different cell lines. The survival of the cells was expressed forty eight hours after the addition of each meriolin, using the MTS reduction test. The ICS© values were calculated from dose-response curves and are given in micromoles in table 3 below.

MDA-MB-231 (breast) = assay: Cell survival, MTS reduction, MDA-MB-231; assay type: cell-based; details: Homo sapiens, forty eight hours after addition, read-out: Survival of the cells (IC50, μM) (MTS reduction) MDA-MB-231 (breast)
Experimental: as §1, §2

PC3 (prostate) = assay: Cell survival, MTS reduction, PC3; assay type: cell-based; details: forty eight hours after addition; read-out: Survival of the cells (IC50, μM) (MTS reduction) PC3 (prostate)
Experimental: as §1, §2

Huh7 (hepatoma) = assay: Cell survival, MTS reduction, Huh7; assay type: cell-based; details: Homo sapiens, Huh-7; forty eight hours after addition; read-out: Survival of the cells (IC50, μM) (MTS reduction) Huh7 (hepatoma)
Experimental: as §1, §2

F1 (hepatoma) = assay: Cell survival, MTS reduction, F1; assay type: cell-based; details: forty eight hours after addition; read-out: Survival of the cells (IC50, μM) (MTS reduction) F1 (hepatoma)
Experimental: as §1, §2

[1] = tested on: HEK293 (embryonic kidney); assay: Cell survival, MTS reduction, HEK293; assay type: cell-based; details: Homo sapiens, forty eight hours after addition, read-out: Survival of the cells (IC50, μM) (MTS reduction) HEK293 (embryonic kidney)
Experimental: The HEK293 cells were grown in an MEM medium with Glutamax originating from Invitrogen, antibiotics and 10% by volume of FCS.
as §1
The effects of meriolins 2 and 3 on the survival of various cell lines were also tested at various concentrations in order to determine their effects on eight different cell lines. […] The ICS© values were calculated from dose-response curves and are given in micromoles in table 3 below.

[2] = tested on: Human foreskin fibroblasts; assay: Cell survival, MTS reduction, human foreskin fibroblasts; assay type: cell-based; details: Fibroblast, forty eight hours after addition, read-out: Survival of the cells (IC50, μM) (MTS reduction) Human foreskin fibroblasts
Experimental: as §1, §2

A4573 cells xenograft = assay: In vivo antitumor activity, A4573 xenograft; parameters: species or system athymic male nude mice; details: 50 mg/kg intraperitoneal once daily, versus control
Experimental: Athymic male nude mice (aged from 5 to 6 weeks) were obtained from the National Cancer Institute. The mice were housed in the animal facility of the Division of Comparative Medicine of Georgetown University. All the studies on the animals were carried out under protocols approved by the Animal Care and Use Committee of Georgetown University. The mice were inoculated by subcutaneous injection into the right posterior flank with 4×10^6 A4573 cells in 100 μl of Matrigel basic membrane matrix (Becton Dickinson). Xenografts were grown to a mean tumor volume of 129±30 mm^3. The compounds tested were first dissolved in either absolute methanol or DMSL (1 volume). A carrier solution was produced using a diluent containing 10% Tween 80, 20% N—N-dimethylacetamide and 70% polyethylene glycol 400 (Fisher Scientific, Pittsburgh, Pa.). The mice were randomly divided into two groups (six animals per group) and the treatment was initiated. […] At these times, the tumors were removed, measured and prepared for TUNEL assays. The primary tumor volumes were calculated by the formula V=(1/2)a×b^2, where a is the longest tumor axis and b is the shortest tumor axis. The values are given in the form of mean±standard deviation values in quantitative experiments. […]

CDK1/cyclin B = CDK1/cyclin B kinase assay (histone H1, [γ-33P]-ATP); details: read-out: IC50 CDK1/cyclin B, 15 μM ATP, 30° C.
Experimental: Controls were prepared with appropriate dilutions of dimethyl sulfoxide.
After incubating at 30° C. for 30 minutes, 25 μl aliquots of the supernatant were spotted onto filters made of Whatman P81 phosphocellulose paper and, 20 seconds later, the filters were washed 5 times (for at least 5 (five) minutes each time) in a solution of 10 ml of phosphoric acid/liter of water. The wet filters were subjected to counting in the presence of an ACS scintillation fluid from Amersham.

protein kinase hSGK1 = molecular target: T1, protein kinase hSGK1 (Homo sapiens, UniProt O00141); details: from Angew. Chem. Int. Ed., 2005, 44, 6951-6956; cited from earlier work
T1 sequence (O00141 1-431): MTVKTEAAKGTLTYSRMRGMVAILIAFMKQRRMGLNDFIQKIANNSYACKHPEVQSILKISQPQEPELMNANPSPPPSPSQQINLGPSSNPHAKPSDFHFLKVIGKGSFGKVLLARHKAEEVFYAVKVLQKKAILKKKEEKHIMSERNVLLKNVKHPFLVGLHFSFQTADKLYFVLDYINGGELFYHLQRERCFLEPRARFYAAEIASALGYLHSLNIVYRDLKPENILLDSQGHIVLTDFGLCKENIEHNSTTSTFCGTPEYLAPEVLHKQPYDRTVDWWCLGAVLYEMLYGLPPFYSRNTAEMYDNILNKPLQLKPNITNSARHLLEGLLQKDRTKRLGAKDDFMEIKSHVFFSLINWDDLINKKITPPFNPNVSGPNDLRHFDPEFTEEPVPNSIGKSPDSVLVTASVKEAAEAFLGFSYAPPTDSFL

| Structure (SMILES) | pIC50 (GSK-3α/β) | pIC50 (CK1δ/ε) | pIC50 (DYRK1A) | IC50 (SH-SY5Y cells) | pIC50 (SH-SY5Y cells; Table 2, exposed for 24 hours) | IC50 (HCT116 (colon)) | IC50 (MDA-MB-231 (breast)) | IC50 (PC3 (prostate)) | IC50 (Huh7 (hepatoma)) | IC50 (F1 (hepatoma)) | IC50 [1] | IC50 [2] | mean tumor volume over time (FIG. 3) (A4573 cells xenograft) | pIC50 (CDK1/cyclin B) | pIC50 (SH-SY5Y cells; 24 h) | pIC50 (protein kinase hSGK1) |
| --- | --- | --- | --- | --- | --- | --- | --- | --- | --- | --- | --- | --- | --- | --- | --- | --- |
| COc1ccnc2[nH]cc(-c3ccnc(N)n3)c12 [Meriolin 3, 3-[(2-amino)pyrimidin-4-yl]-4-methoxy-1H-pyrrolo[2,3-b]pyridine] | 6.64 | 6.70 | 7.54 | 0.072 µM | 7.14 | 0.94 µM | 19 µM | 95 µM | 0.12 µM | 0.26 µM | 0.38 µM | 8 µM | only increases slightly over time | 6.77 | – | – |
| Nc1nccc(-c2c[nH]c3ncccc23)n1 [Meriolin 1, 3-[(2-amino)pyrimidin-4-yl]-1H-pyrrolo[2,3-b]pyridine, reference compound] | – | – | 6.89 | – | – | – | – | – | – | – | – | – | – | – | 6.17 | 5.62 |
| Nc1nccc(-c2c[nH]c3nccc(O)c23)n1 [Meriolin 2, 3-[(2-amino)pyrimidin-4-yl]-4-hydroxy-1H-pyrrolo[2,3-b]pyridine] | 6.40 | 7.30 | 7.46 | 0.41 µM | 6.39 | 0.08 µM | 1.8 µM | 17.3 µM | 1 µM | 2 µM | 2.6 µM | 20 µM | – | 7.24 | – | – |
